Experimental data taken from patent publication US20210401730A1, “USE OF EXTRACTS OF AGAVE FOR A HAIR APPLICATION” (priority 2017, published 2021).
Where two headings read alike, the source gives them in different places.

How the values were obtained:
[1] = test system: human umbilical vein endothelial cells (HUVEC); test: Formation of microtubules (pseudo-tubes) by endothelial cells on matrigel; assay type: cell-based; details: for Results in % (formation of pseudo-tubes): 6 hours, control medium = 100
Method: In this experiment, the cells are human umbilical vein endothelial cells (HUVEC) cultured in M200 medium (Invitrogen M200500) on matrigel (BD Biosciences 354234) for 6 hours. The cells are either in the medium (control medium) or treated by suramin (negative control) or treated by VEGF (positive control) or treated by Metlin® or Metlos® inulins (at 0.1%). After 6 hours of incubation, the pseudo-tubes formed are observed under the microscope and images are taken at random to be subsequently quantified (total surface of the network) by image analysis.

[2] = test system: EPCs (circulating endothelial progenitor cells) originating from human umbilical cord blood; test: Migration of endothelial progenitor cells through insert membrane; assay type: cell-based; details: C+ medium + VEGF 10 ng/ml, 5 hours
Method: The study was carried out on EPCs (circulating endothelial progenitor cells) originating from human umbilical cord blood, cultured in EGM-2 medium (Endothelial Growth medium-2).
Before the treatment, the cells are starved in 0.2% EBM-2 medium of fetal calf serum (FCS). The cells are subsequently seeded in an insert containing EGM-2 medium with 0.2% FCS, immersed in a well containing the treatment: either EGM-2 medium 0.2% FCS (negative control), or EGM-2 medium 0.2% FCS plus VEGF at 10 ng/ml (positive control), or EGM-2 medium 0.2% FCS plus the Metlin® or Metlos® inulins at 0.5% or 1%. After 5 hours of incubation, the cells inside the inserts are eliminated and those that have migrated to the other side of the insert membrane are fixed with 4% paraformaldehyde for 10 min. The cells that have migrated are subsequently counted.

`Cc1ccc(C(=O)Nc2ccc(S(=O)(=O)O)c3cc(S(=O)(=O)O)cc(S(=O)(=O)O)c23)cc1NC(=O)c1cccc(NC(=O)Nc2cccc(C(=O)Nc3cc(C(=O)Nc4ccc(S(=O)(=O)O)c5cc(S(=O)(=O)O)cc(S(=O)(=O)O)c45)ccc3C)c2)c1` [Suramin, suramin] was tested, and the Number of branchings ([1]; C− 20 μM, 6 hours of incubation) was 0 and the “Results in % (formation of pseudo-tubes)” value ([1]; C− 20 μM) was 0%.
VEGF was tested, and the Number of branchings [1] was 18, the “Results in % (formation of pseudo-tubes)” value ([1]; C+ 50 ng/ml) was 140% and the “Number of cells (migrated)” value [2] was 417. For the same compound, the “Results relative to C−” value [2] was 181%.
